Read-outs that look alike come from different tables or passages of the source.
Tests used:
[1] = In vitro cytotoxicity assay, CCK-8 method; assay type: cell-based; conditions: human, HepG2 cells
Summary of the method: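 HepG2 cells at 50,000/well, grown to 80–90% confluence, exposed to compound dilutions or DMSO vehicle for 48 h at 37 °C. Viability by CCK-8 (1.5 h, 37 °C), absorbance at 450 nm; CC50 calculated.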

[2] = biological target: hP2X2/3 (heterodimeric receptors formed by human purinergic P2X receptors subtype 2 and subtype 3) (Homo sapiens (Human), UniProt P56373+Q9UBL9); assay: FLIPR calcium assay, hP2X2/3 expressed in HEK293 cells (P2X2/3 receptor selectivity); assay type: cell-based; conditions: for IC50: HEK293 cells expressing hP2X2/3, agonist BZ-ATP 5 μM, unit inferred
[3] = biological target: hP2X3 (human purinergic P2X receptor subtype 3) (Homo sapiens (Human), UniProt P56373); assay: FLIPR calcium assay, hP2X3 expressed in HEK293 cells; assay type: cell-based; conditions: read-out: P2X3 IC50
Male SD rats = assay: Two-bottle dysgeusia test (quinine water vs normal water); assay type: in vivo, rat; conditions: for Ratio of quinine/water intake (in words): compared with the blank vehicle; for Quinine/tap water* 100%: rats, single intraperitoneal injection
Method: All drinking water bottles were removed out 20 h before the start of the formal experiment, and all the animals were deprived of water until the start of the experiment. In the experiment, all the animals were randomly grouped and then subjected to a single intraperitoneal injection of a test compound or a vehicle before water was resupplied. The administration time was determined according to the Tmax of the test compound. Then the animals were placed in separate cages, and two bottles of drinking water (one bottle of normal drinking water and one bottle of 0.3 mM quinine water) were provided.

[4] = tested on: Male Dunkin Hartley guinea pigs; assay: Citric acid only cough model; assay type: in vivo, guinea pig; set-up: Mean cough latency: unit not given beside the values; conditions: for Number of coughs and cough latency (in words): compared with the blank vehicle or the condition before administration; for inhibition in vivo at 30 mg/kg: Cavia porcellus; for Mean number of coughs: 17.5% citric acid
Method: Male Dunkin Hartley guinea pigs (300-350 g) were placed in an animal atomization box, and then the door of the atomization box was closed while the ultrasonic atomizer (Guangdong Yuehua) was turned on. 17.5% citric acid gas was introduced into the atomization box at a maximum atomization rate (about 2 mL/min) for 20 s, and coughs of the animals within 10 min were continuously observed from the time of the start of atomization. During the 10-min observation, coughs of the animals were counted manually, and the number of coughs were judged according to cough postures of the guinea pigs, such as abdominal twitching, mouth opening, and head inclining downward abruptly. The number of coughs during the first 5 min and that during 10 min were recorded, and the cough latency of the guinea pigs, namely the time from the initiation of citric acid induction to the appearance of the first cough, was also recorded.

[5] = In vitro metabolic stability, guinea pig liver microsome; assay type: in vitro ADME; conditions: liver microsomes, 1 mg/mL liver microsome protein, 37° C., NA = essentially not metabolized, read-out: T1/2 in guinea pig liver microsome
Method: (§1) The in vitro metabolic stability of the compounds disclosed herein was determined through incubation of liver microsomes of various species. A proper amount of test compound was added into a liver microsome reaction system (1 mg/mL liver microsome protein, 25 U/mL glucose-6 phosphate dehydrogenase, 1 mM NADP, 6 mM D-glucose 6-phosphate and 5 mM MgCl2), and then the mixture was incubated in a water bath kettle at 37° C. to start the reaction. At each time point, 100 μL of the reaction mixture was added into a centrifuge tube containing 400 μL of internal standard working solution (containing a 200 ng/mL solution of dexamethasone, diclofenac, tolbutamide and labetalol in acetonitrile) precooled at 0° C. so as to terminate the reaction, and the mixture was then centrifuged at 10,000 g for 10 min at 4° C. The supernatant was collected for LC-MS assay so as to obtain the values of in vitro metabolic half-life of the test compounds in liver microsomes of various species.

[6] = In vitro metabolic stability, human liver microsome; assay type: in vitro ADME; conditions: liver microsomes, 1 mg/mL liver microsome protein, 37° C., NA = essentially not metabolized, read-out: T1/2 in human liver microsome
Method: as §1, with “A proper amount of test compound was added into a liver microsome reaction system (1 mg/mL liver microsome protein, 25 U/mL glucose-6 phosphate dehydrogenase, 1 mM NADP, 6 mM D-glucose 6-phosphate and 5 mM MgCl2), and then the mixture was incubated in a water bath kettle at 37° C. to start the reaction.” left out

[7] = In vitro metabolic stability, rat liver microsome; assay type: in vitro ADME; conditions: liver microsomes, 1 mg/mL liver microsome protein, 37° C., NA = essentially not metabolized, read-out: T1/2 in rat liver microsome
Method: as §1, with “A proper amount of test compound was added into a liver microsome reaction system (1 mg/mL liver microsome protein, 25 U/mL glucose-6 phosphate dehydrogenase, 1 mM NADP, 6 mM D-glucose 6-phosphate and 5 mM MgCl2), and then the mixture was incubated in a water bath kettle at 37° C. to start the reaction.” left out

[8] = Table 8, 20 mg/kg, water intake within 15 min, 0.3 mM quinine
[9] = 30 mg/kg, read-out: Cough inhibition rate Vs Baseline (%)
[10] = 30 mg/kg, read-out: Cough inhibition rate Vs Vehicle (%)
[11] = before administration (baseline of the group)

Sequence of hP2X2/3 (heterodimeric receptors formed by human purinergic P2X receptors subtype 2 and subtype 3) (P56373 whole entry): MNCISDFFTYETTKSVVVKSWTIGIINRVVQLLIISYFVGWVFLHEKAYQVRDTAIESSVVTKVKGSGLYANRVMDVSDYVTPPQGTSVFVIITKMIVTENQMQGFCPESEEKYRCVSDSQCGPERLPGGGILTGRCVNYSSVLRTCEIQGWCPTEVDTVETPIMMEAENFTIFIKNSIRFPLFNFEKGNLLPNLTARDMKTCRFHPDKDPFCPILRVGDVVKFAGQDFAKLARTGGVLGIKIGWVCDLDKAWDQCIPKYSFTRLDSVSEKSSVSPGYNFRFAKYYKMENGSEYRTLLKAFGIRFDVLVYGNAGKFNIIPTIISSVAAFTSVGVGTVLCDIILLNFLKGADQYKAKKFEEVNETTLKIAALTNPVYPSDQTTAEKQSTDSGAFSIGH
Sequence of hP2X2/3 (heterodimeric receptors formed by human purinergic P2X receptors subtype 2 and subtype 3) (Q9UBL9 whole entry): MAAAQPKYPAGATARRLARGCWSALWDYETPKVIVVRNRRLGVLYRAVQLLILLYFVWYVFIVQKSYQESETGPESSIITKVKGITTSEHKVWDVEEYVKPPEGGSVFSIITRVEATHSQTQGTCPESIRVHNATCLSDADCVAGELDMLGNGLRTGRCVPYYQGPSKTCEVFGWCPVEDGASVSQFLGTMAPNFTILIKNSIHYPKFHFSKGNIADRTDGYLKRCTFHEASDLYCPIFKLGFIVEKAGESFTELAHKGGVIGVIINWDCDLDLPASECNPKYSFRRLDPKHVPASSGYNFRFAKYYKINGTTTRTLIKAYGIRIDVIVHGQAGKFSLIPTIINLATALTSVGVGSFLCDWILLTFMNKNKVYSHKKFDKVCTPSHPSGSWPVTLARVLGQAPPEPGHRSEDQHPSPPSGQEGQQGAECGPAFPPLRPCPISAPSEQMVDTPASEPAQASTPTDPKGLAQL
Sequence of hP2X3 (human purinergic P2X receptor subtype 3) (P56373 whole entry): as the sequence (P56373 whole entry) above

With `CC(=O)N1CCO[C@@H](Cc2c(-c3c(F)cc(-n4ccnc4)cc3F)nc3cc(C)ccn23)C1` [Compound 162, (S)-1-(2-((2-(2,6-difluoro-4-(1H-imidazol-1-yl)phenyl)-7-methylimidazo[1,2-a]pyridin-3-yl)methyl)morpholino)ethan-1-one] the CC50 at 48 h [1] was > 100 µM, the Folds of selectivity [2] was “A (key: A: folds of selectivity >1000; B: 200< folds of selectivity ≤1000; C: folds of selectivity ≤200)” and the IC50 [2] was > 60 µM. The IC50 [3] was < 0.01 µM, the “Ratio of quinine/water intake (in words)” value (Male SD rats; 20 mg/kg) was “almost unaffected” and the “Quinine/tap water* 100%” value (Male SD rats; [8]) was 6.34%. For the same compound, the “Number of coughs and cough latency (in words)” value (shortened to “Number … (in words)”) ([4]; 30 mg/kg) was “can effectively reduce the number of coughs and prolong the cough latency”, the inhibition in vivo at 30 mg/kg [4, 9] was 46.1% and the inhibition in vivo at 30 mg/kg [4, 10] was 42.8%.

In the case of `COC(=O)N1CCO[C@@H](Cc2c(-c3c(F)cc(-c4ncc[nH]4)cc3F)nc3cc(C)ccn23)C1` [Compound 7, methyl (S)-2-((2-(2,6-difluoro-4-(1H-imidazol-2-yl)phenyl)-7-methylimidazo[1,2-a]pyridin-3-yl)methyl)morpholine-4-carboxylate], the half-life [5] is reported as 0.348 h, the CC50 at 48 h [1] is reported as 195 µM and the Folds of selectivity [2] is reported as “A (key: A: folds of selectivity >1000; B: 200< folds of selectivity ≤1000; C: folds of selectivity ≤200)”. For the same compound, the IC50 [2] was > 60 µM, the half-life [6] was 2.13 h and the IC50 [3] was < 0.01 µM. The “Ratio of quinine/water intake (in words)” value (Male SD rats; 20 mg/kg) was “almost unaffected”, the “Quinine/tap water* 100%” value (Male SD rats; [8]) was 6.91% and the half-life [7] was 0.326 h. For the same compound, the “Number … (in words)” value ([4]; 30 mg/kg) was “can effectively reduce the number of coughs and prolong the cough latency”, the inhibition in vivo at 30 mg/kg [4, 9] was 42.6% and the inhibition in vivo at 30 mg/kg [4, 10] was 38.3%.

For `COC(=O)N1CCO[C@@H](Cc2c(-c3c(F)cc(N)cc3F)nc3cc(Cl)ccn23)C1` [Compound 161, methyl (S)-2-((2-(4-amino-2,6-difluorophenyl)-7-chloroimidazo[1,2-a]pyridin-3-yl)methyl)morpholine-4-carboxylate], the CC50 at 48 h [1] was > 100 µM, the Folds of selectivity [2] was “A (key: A: folds of selectivity >1000; B: 200< folds of selectivity ≤1000; C: folds of selectivity ≤200)” and the IC50 [2] was > 60 µM. For the same compound, the IC50 [3] was 0.01 to 0.05 µM, the “Ratio of quinine/water intake (in words)” value (Male SD rats; 20 mg/kg) was “almost unaffected” and the “Quinine/tap water* 100%” value (Male SD rats; [8]) was 5.03%. For the same compound, the “Number … (in words)” value ([4]; 30 mg/kg) was “can effectively reduce the number of coughs and prolong the cough latency”, the inhibition in vivo at 30 mg/kg [4, 9] was 66.2% and the inhibition in vivo at 30 mg/kg [4, 10] was 63.5%.

With `COC(=O)N1CCO[C@@H](Cc2c(-c3c(F)cc(NC(C)=O)cc3F)nc3cc(C)ccn23)C1` [Compound 2, methyl (S)-2-((2-(2,6-difluoro-4-acetamidophenyl)-7-methylimidazo[1,2-a]pyridin-3-yl)-methyl)morpholine-4-carboxylate] the half-life [5] was 1.59 h, the CC50 at 48 h [1] was 124 µM and the Folds of selectivity [2] was “A (key: A: folds of selectivity >1000; B: 200< folds of selectivity ≤1000; C: folds of selectivity ≤200)”. For the same compound, the IC50 [2] was > 60 µM, the half-life [6] was 14.9 h and the IC50 [3] was < 0.01 µM. The “Ratio of quinine/water intake (in words)” value (Male SD rats; 20 mg/kg) was “almost unaffected”, the “Quinine/tap water* 100%” value (Male SD rats; [8]) was 5.49% and the half-life [7] was 0.872 h. For the same compound, the “Number … (in words)” value ([4]; 30 mg/kg) was “can effectively reduce the number of coughs and prolong the cough latency”, the inhibition in vivo at 30 mg/kg [4, 9] was 38.7% and the inhibition in vivo at 30 mg/kg [4, 10] was 34.2%.

For `CNC(=O)c1cc(F)c(-c2nc3cc(C)ccn3c2C[C@H]2CN(C(=O)OC)CCO2)c(F)c1` [Positive compound 1, methyl (S)-2-((2-(2,6-difluoro-4-(4-methylcarbamoyl)phenyl)-7-methylimidazo[1,2-a]pyridin-3-yl)methyl)morpholine-4-carboxylate, reference compound], the half-life [5] was 1.87 h, the CC50 at 48 h [1] was 128 µM and the Folds of selectivity [2] was >5217. The half-life [6] was 24.2 h, the half-life [7] was 0.89 h and the “Cough inhibition rate Vs Baseline (%)” value ([4]; 30 mg/kg) was 47.0%. The “Cough inhibition rate Vs Vehicle (%)” value ([4]; 30 mg/kg) was 42.6%, the Mean cough latency ([4]; after administration, 30 mg/kg) was 226.75 and the “Mean number of coughs” value ([4]; after administration, 30 mg/kg) was 9.88. For the same compound, the Mean cough latency [4, 11] was 80.13 and the “Mean number of coughs” value [4, 11] was 18.63.

In the case of `CCC(=O)c1ccn(-c2cc(F)c(-c3nc4cc(C)ccn4c3C[C@H]3CN(C(=O)OC)CCO3)c(F)c2)n1` [Compound 164, methyl (S)-2-((2-(2,6-difluoro-4-(3-propionyl-1H-pyrazol-1-yl)phenyl)-7-methylimidazo[1,2-a]pyridin-3-yl)methyl) morpholine-4-carboxylate], the CC50 at 48 h [1] is reported as > 100 µM, the Folds of selectivity [2] is reported as “A (key: A: folds of selectivity >1000; B: 200< folds of selectivity ≤1000; C: folds of selectivity ≤200)” and the IC50 [2] is reported as > 60 µM. The “Ratio of quinine/water intake (in words)” value (Male SD rats; 20 mg/kg) was “almost unaffected”, the “Quinine/tap water* 100%” value (Male SD rats; [8]) was 6.69% and the inhibition in vivo at 30 mg/kg [4, 9] was 67.2%. It also gave an inhibition in vivo at 30 mg/kg [4, 10] of 65.2%.

In the case of `COc1cc(C(C)C)c(Oc2cnc(N)nc2N)cc1S(N)(=O)=O` [Positive compound 2, reference compound], the half-life [5] is reported as 14.9 h, the CC50 at 48 h [1] is reported as > 200 µM and the “Quinine/tap water* 100%” value (Male SD rats; [8]) is reported as 59.41%. For the same compound, the “Quinine/tap water* 100%” value (Male SD rats; Table 9, 10 mg/kg) was 18.62%, the “Quinine/tap water* 100%” value (Male SD rats; Table 9, 20 mg/kg) was 34.99% and the half-life [7] was 18.2 h.

With `CNC(=O)c1cc(F)c(-c2oc3cc(C)ccc3c2C[C@H]2CN(C(=O)OC)CCO2)c(F)c1` [Compound 53, methyl (S)-2-((2-(2,6-difluoro-4-(methylcarbamoyl)phenyl)-6-methylbenzofuran-3-yl)methyl)morpholine-4-carboxylate] the IC50 [3] was < 0.01 µM, the “Ratio of quinine/water intake (in words)” value (Male SD rats; 20 mg/kg) was “almost unaffected” and the “Quinine/tap water* 100%” value (Male SD rats; [8]) was 7.65%. For the same compound, the “Number … (in words)” value ([4]; 30 mg/kg) was “can effectively reduce the number of coughs and prolong the cough latency”, the inhibition in vivo at 30 mg/kg [4, 9] was 51.7% and the inhibition in vivo at 30 mg/kg [4, 10] was 47.7%.

For `CC(=O)N1CCO[C@@H](Cc2c(-c3c(F)cc(-c4nnc[nH]4)cc3F)nc3cc(C)ccn23)C1` [Compound 165], the CC50 at 48 h [1] was > 100 µM, the Folds of selectivity [2] was “A (key: A: folds of selectivity >1000; B: 200< folds of selectivity ≤1000; C: folds of selectivity ≤200)” and the IC50 [2] was > 60 µM. The IC50 [3] was < 0.01 µM, the “Ratio of quinine/water intake (in words)” value (Male SD rats; 20 mg/kg) was “almost unaffected” and the “Quinine/tap water* 100%” value (Male SD rats; [8]) was 3.90%. The “Number … (in words)” value ([4]; 30 mg/kg) was “can effectively reduce the number of coughs and prolong the cough latency”, the inhibition in vivo at 30 mg/kg [4, 9] was 54.5% and the inhibition in vivo at 30 mg/kg [4, 10] was 53.6%.
